Source: the NIST ThermoML archive (doi:10.1021/je800940j)
Numbers after ± are expanded uncertainties.

Experiment: xn = mol fraction of the nth substance listed
Settings: 101 kPa, Liquid; for viscosity: Concentric cylinders viscometry

C1CCCCC1 [cyclohexane] + Cc1ccccc1
viscosity (283.15 K, x1 = 0.0958): 0.6712 ± 0.0084 mPa·s
viscosity (283.15 K, x1 = 0.196): 0.6623 ± 0.0083 mPa·s
viscosity (283.15 K, x1 = 0.2986): 0.6792 ± 0.0084 mPa·s
viscosity (283.15 K, x1 = 0.3988): 0.6948 ± 0.0085 mPa·s
viscosity (283.15 K, x1 = 0.4974): 0.7218 ± 0.0087 mPa·s
viscosity (283.15 K, x1 = 0.5989): 0.7635 ± 0.0089 mPa·s
viscosity (283.15 K, x1 = 0.6977): 0.8203 ± 0.0092 mPa·s
viscosity (283.15 K, x1 = 0.7998): 0.9103 ± 0.0098 mPa·s
viscosity (283.15 K, x1 = 0.8994): 0.9994 ± 0.01 mPa·s
viscosity (283.15 K, x1 = 1): 1.18 ± 0.011 mPa·s
mass density (283.15 K, x1 = 0.0958): 866.15 ± 0.65 kg/m3
mass density (283.15 K, x1 = 0.196): 855.85 ± 0.67 kg/m3
mass density (283.15 K, x1 = 0.2986): 846 ± 0.69 kg/m3
mass density (283.15 K, x1 = 0.3988): 836.5 ± 0.71 kg/m3
mass density (283.15 K, x1 = 0.4974): 827.65 ± 0.73 kg/m3
mass density (283.15 K, x1 = 0.5989): 818.8 ± 0.74 kg/m3
mass density (283.15 K, x1 = 0.6977): 810.1 ± 0.76 kg/m3
mass density (283.15 K, x1 = 0.7998): 802.5 ± 0.78 kg/m3
mass density (283.15 K, x1 = 0.8994): 794.8 ± 0.79 kg/m3
mass density (283.15 K, x1 = 1): 787.95 ± 0.81 kg/m3
viscosity (293.15 K, x1 = 0.0958): 0.5995 ± 0.008 mPa·s
viscosity (293.15 K, x1 = 0.196): 0.5908 ± 0.0079 mPa·s
viscosity (293.15 K, x1 = 0.2986): 0.6051 ± 0.008 mPa·s
viscosity (293.15 K, x1 = 0.3988): 0.6171 ± 0.0081 mPa·s
viscosity (293.15 K, x1 = 0.4974): 0.6378 ± 0.0082 mPa·s
viscosity (293.15 K, x1 = 0.5989): 0.67 ± 0.0084 mPa·s
viscosity (293.15 K, x1 = 0.6977): 0.7137 ± 0.0086 mPa·s
viscosity (293.15 K, x1 = 0.7998): 0.7838 ± 0.009 mPa·s
viscosity (293.15 K, x1 = 0.8994): 0.8472 ± 0.0094 mPa·s
viscosity (293.15 K, x1 = 1): 0.9847 ± 0.01 mPa·s
mass density (293.15 K, x1 = 0.0958): 856.9 ± 0.67 kg/m3
mass density (293.15 K, x1 = 0.196): 846.6 ± 0.69 kg/m3
mass density (293.15 K, x1 = 0.2986): 836.7 ± 0.71 kg/m3
mass density (293.15 K, x1 = 0.3988): 827.2 ± 0.73 kg/m3
mass density (293.15 K, x1 = 0.4974): 818.35 ± 0.75 kg/m3
mass density (293.15 K, x1 = 0.5989): 809.4 ± 0.76 kg/m3
mass density (293.15 K, x1 = 0.6977): 800.7 ± 0.78 kg/m3
mass density (293.15 K, x1 = 0.7998): 793.1 ± 0.8 kg/m3
mass density (293.15 K, x1 = 0.8994): 785.5 ± 0.81 kg/m3
mass density (293.15 K, x1 = 1): 778.7 ± 0.83 kg/m3
viscosity (303.15 K, x1 = 0.0958): 0.5395 ± 0.0076 mPa·s
viscosity (303.15 K, x1 = 0.196): 0.5306 ± 0.0076 mPa·s
viscosity (303.15 K, x1 = 0.2986): 0.543 ± 0.0077 mPa·s
viscosity (303.15 K, x1 = 0.3988): 0.5524 ± 0.0077 mPa·s
viscosity (303.15 K, x1 = 0.4974): 0.5683 ± 0.0078 mPa·s
viscosity (303.15 K, x1 = 0.5989): 0.5935 ± 0.008 mPa·s
viscosity (303.15 K, x1 = 0.6977): 0.6274 ± 0.0081 mPa·s
viscosity (303.15 K, x1 = 0.7998): 0.6824 ± 0.0085 mPa·s
viscosity (303.15 K, x1 = 0.8994): 0.7271 ± 0.0087 mPa·s
viscosity (303.15 K, x1 = 1): 0.8295 ± 0.0093 mPa·s
mass density (303.15 K, x1 = 0.0958): 847.5 ± 0.69 kg/m3
mass density (303.15 K, x1 = 0.196): 837.2 ± 0.71 kg/m3
mass density (303.15 K, x1 = 0.2986): 827.3 ± 0.73 kg/m3
mass density (303.15 K, x1 = 0.3988): 817.8 ± 0.75 kg/m3
mass density (303.15 K, x1 = 0.4974): 808.9 ± 0.76 kg/m3
mass density (303.15 K, x1 = 0.5989): 800 ± 0.78 kg/m3
mass density (303.15 K, x1 = 0.6977): 791.3 ± 0.8 kg/m3
mass density (303.15 K, x1 = 0.7998): 783.65 ± 0.82 kg/m3
mass density (303.15 K, x1 = 0.8994): 776.1 ± 0.83 kg/m3
mass density (303.15 K, x1 = 1): 769.2 ± 0.84 kg/m3
viscosity (313.15 K, x1 = 0.0958): 0.4879 ± 0.0074 mPa·s
viscosity (313.15 K, x1 = 0.196): 0.4776 ± 0.0073 mPa·s
viscosity (313.15 K, x1 = 0.2986): 0.487 ± 0.0074 mPa·s
viscosity (313.15 K, x1 = 0.3988): 0.4971 ± 0.0074 mPa·s
viscosity (313.15 K, x1 = 0.4974): 0.5095 ± 0.0075 mPa·s
viscosity (313.15 K, x1 = 0.5989): 0.5294 ± 0.0076 mPa·s
viscosity (313.15 K, x1 = 0.6977): 0.5553 ± 0.0077 mPa·s
viscosity (313.15 K, x1 = 0.7998): 0.5987 ± 0.008 mPa·s
viscosity (313.15 K, x1 = 0.8994): 0.6373 ± 0.0082 mPa·s
viscosity (313.15 K, x1 = 1): 0.7061 ± 0.0086 mPa·s
mass density (313.15 K, x1 = 0.0958): 838.15 ± 0.71 kg/m3
mass density (313.15 K, x1 = 0.196): 827.8 ± 0.73 kg/m3
mass density (313.15 K, x1 = 0.2986): 817.9 ± 0.75 kg/m3
mass density (313.15 K, x1 = 0.3988): 808.4 ± 0.77 kg/m3
mass density (313.15 K, x1 = 0.4974): 799.45 ± 0.78 kg/m3
mass density (313.15 K, x1 = 0.5989): 790.5 ± 0.8 kg/m3
mass density (313.15 K, x1 = 0.6977): 781.8 ± 0.82 kg/m3
mass density (313.15 K, x1 = 0.7998): 774.15 ± 0.83 kg/m3
mass density (313.15 K, x1 = 0.8994): 766.5 ± 0.85 kg/m3
mass density (313.15 K, x1 = 1): 759.65 ± 0.86 kg/m3
viscosity (323.15 K, x1 = 0.0958): 0.4428 ± 0.0071 mPa·s
viscosity (323.15 K, x1 = 0.196): 0.431 ± 0.0071 mPa·s
viscosity (323.15 K, x1 = 0.2986): 0.4426 ± 0.0071 mPa·s
viscosity (323.15 K, x1 = 0.3988): 0.4491 ± 0.0072 mPa·s
viscosity (323.15 K, x1 = 0.4974): 0.4589 ± 0.0072 mPa·s
viscosity (323.15 K, x1 = 0.5989): 0.4735 ± 0.0073 mPa·s
viscosity (323.15 K, x1 = 0.6977): 0.4886 ± 0.0074 mPa·s
viscosity (323.15 K, x1 = 0.7998): 0.5292 ± 0.0076 mPa·s
viscosity (323.15 K, x1 = 0.8994): 0.5583 ± 0.0078 mPa·s
viscosity (323.15 K, x1 = 1): 0.5978 ± 0.008 mPa·s
mass density (323.15 K, x1 = 0.0958): 828.65 ± 0.72 kg/m3
mass density (323.15 K, x1 = 0.196): 818.35 ± 0.75 kg/m3
mass density (323.15 K, x1 = 0.2986): 808.45 ± 0.77 kg/m3
mass density (323.15 K, x1 = 0.3988): 798.9 ± 0.78 kg/m3
mass density (323.15 K, x1 = 0.4974): 789.95 ± 0.8 kg/m3
mass density (323.15 K, x1 = 0.5989): 781 ± 0.82 kg/m3
mass density (323.15 K, x1 = 0.6977): 772.25 ± 0.84 kg/m3
mass density (323.15 K, x1 = 0.7998): 764.5 ± 0.85 kg/m3
mass density (323.15 K, x1 = 0.8994): 756.9 ± 0.87 kg/m3
mass density (323.15 K, x1 = 1): 749.9 ± 0.88 kg/m3
